Reference: patent US20110293658A1, “USE OF INKT OR TLR AGONISTS FOR PROTECTING AGAINST OR TREATING A DISEASE SUCH AS ACUTE INFECTION OR CANCER” (LUDWIG INSTITUTE FOR CANCER RESEARCH LTD., priority 2008, published 2011)

Columns and labels:
[1] = system: lung derived MDSC (CD11b+ Gr-1+ cells) from PR8 infected mice; type: cell-based, mouse
[2] = system: human GM-CSF treated MDSC; assay: Mixed lymphocyte reaction with healthy donors' GM-CSF treated MDSC; type: cell-based; details: for T cell proliferation in MLR with TLR-L treated MDSC: LPS 10 μg/ml, R848 5 μg/ml, Poly I:C 10 μg/ml, 24 h co-culture with added human iNKT cells, DC:MDSC 1:1
[3] = system: CD11b+ cells from IAV infected individuals; type: cell-based, human; details: L-NMMA and NOHA added together to alloreactive PBL; data not shown
BM derived MDSC = assay: OT-I proliferation assay with BM derived MDSC; type: cell-based, mouse; details: for MDSC suppressive activity on CFSE labelled OT-I proliferation: MDSC incubated 48 h with TLR agonist, in the absence of iNKT cells
[4] = system: EG7 cells (EL4 tumor cell line transfected with ovalbumin cDNA); design: species or system C57 BL/6 mice; details: mouse, in vivo, iv
CD11bCD15 positive cells = assay: Melan-A priming experiments with CD11bCD15 positive cells from melanoma patients; type: cell-based, human; details: CD11bCD15 positive cells pulsed with alphaGalCer 100 ng or Threitolceramide 200 ng
Protocol: CD11bCD15 positive cells were pulsed with either alphaGalCer (100 ng) or Threitolceramide (200 ng) for 2 hours and then incubated with autologous iNKT cells overnight before adding autologous DC pulsed with Melan-A26-35 peptide and autologous CD11bCD15 cell depleted total leukocytes.
Experiments in FIG. 29 were carried out using the same conditions as shown in the right column of FIG. 28 (i.e. in the presence of iNKT cells and alphaGalCer pulsed CD11bCD15 positive cells) in the presence of either blocking anti CD1d (middle column) or blocking anti CD40 (right column) antibodies.
In order to assess whether secretion of IL-10 is contributing to the suppressive activity of CD11bCD15 positive cells, expansion of Melan-A26-35 specific T cell responses as assessed in the presence or absence of blocking anti 11-10 receptor antibodies. In the left hand panel of FIG. 31, expansion of Melan-A26-35 specific T cells was assessed using total leukocytes from which CD11b-CD15+ cells were removed (2.33%). Addition of CD11bCD15 positive cells reduced the frequency of Melan-A26-35 specific T cells (0.83%) (central panel).
Purification of CD11b/CD15+ cells. Since CD15 CD11b positive cells have granulocyte density, it is important to purify them without using density gradients, such as Ficol. Red blood cells are lysed from whole blood, using red lysis cell buffer and anti CD11b/CD15 specific antibodies are added to the leukocytes for FACS guided cell sorting.
Melan-A priming experiments. DCs were generated by culturing monocytes for 4 days in RPMI/10% FCS supplemented with 50 ng/ml GM-CSF (Pepro-tech) and 1,000 U/ml IL-4 (Salio, M., et al. 2007. Proc. Natl. Acad. Sci. U.S.A. 104:20490-20495). […] After 2 weeks, cells were stained with HLA-A2 tetramers loaded with melan-A26-35 peptide and anti CD8.
Harnessing iNKT cells. The protocol to purify Cdl lbCd15 cells and differentiate DC is similar to the protocol described earlier. Cdl lbCd15 cells were pulsed with either alphaGalCer (100 ng) or with threitolceramide (200 ng) and then incubated with iNKT cells for 12 hours. Cells were then washed pulsed with the melan-A26-35 peptide and incubated with total leukocytes. After 2 weeks in culture, cells were stained with HLA-A2 melan-A tetramers and anti-CD8 antibodies.

iNKT cells = assay: IFN-γ and IL-4 release from iNKT cells incubated with treated MDSC; type: cell-based, mouse; details: WT MDSC treated with TLR agonist, iNKT cells incubated 48 h
Protocol: (B) IFN-γ and IL-4 release from iNKT cells incubated for 48 h with CpG or Poly I:C treated MDSC, in the presence or absence of anti CD1d blocking antibody. Data represent the average of 3 replicates ±S.D and are representative of 3 separate experiments.
(A) iNKT cells derived from WT mice fail to produce IFN-γ when incubated with TLR-L matured MDSC derived from hexβ^−/− mice. Analysis of IFN-γ secretion by iNKT cells, derived from WT mice, co-incubated with TLR-L treated MDSC derived from either hexβ^−/− or iGb3S^−/− mice. To assess the role of CD1d molecules expressed on the surface of MDSC, TLR-L treated MDSC were also incubated with blocking […].
Isolation and culture of mouse MDSC. […]
Isolation of mouse iNKT cells. […] The % of iNKT cells was measured by CD1d/α-GalCer tetramer staining and ranged from ˜14% to ˜60%. […]
ELISA: 1) Cytokines. […] The amount of IL-12p40, IFN-γ and IL4 was measured using an ELISA kit (eBioscience). […] Sera from PR8 infected mice were collected 6 days post infection and antibody titers were determined by coating 96-well maxisorb NUNC plates with 5 ng/ml of PR8 virus overnight at 4° C. […] Color reactions were developed with 3,3′,5-5′-Tetramethylbenzidine (TMB) (Sigma-Aldrich) and the absorbance was measured at 490 nm.

CNC(=N)NCCC[C@H](N)C(=O)O [L-NMMA, N^G-monomethyl-L-arginine]
OT-I proliferation in the absence of MDSC ([1]; L-NMMA and NOHA added together to OT-I splenocytes, no MDSC, data not shown): did not affect OT-I proliferation | suppressive activity of MDSC from PR8 infected mice on CFSE labelled OT-I proliferation ([1]; […], L-NMMA and NOHA used together (500 μM)): is reduced | MLR suppressive activity of healthy donors GM-CSF treated MDSC ([2]; NOHA and L-NMMA added together): can be blocked | PBL proliferation in MLR in the absence of MDSC ([2]; NOHA and L-NMMA added together, no MDSC, data not shown): does not affect PBL proliferation | T cell proliferation in the absence of CD11b+ cells [3]: did not affect T cell proliferation

CCCCN1C[C@H](O)[C@@H](O)[C@@H](O)[C@H]1CO [NB-DGJ, N-butyldeoxygalactonojirimycin]
ability of iNKT cells to relieve the suppressive activity of MDSC (CFSE labelled OT-I proliferation) (BM derived MDSC; CpG and poly I:C treated MDSC, increasing concentrations of NB-DGJ, incubated with iNKT cells 24 h): reduced the ability of iNKT cells to relieve the suppressive activity of MDSC | OT-I proliferation in absence of MDSC (BM derived MDSC; NB-DGJ added to OT-I splenocytes, no MDSC, data not shown): did not affect OT-I proliferation

CCOCc1nc2c(N)nc3ccccc3c2n1CC(C)(C)O [R848]
MDSC suppressive activity on CFSE labelled OT-I proliferation (BM derived MDSC): partially relieved | T cell proliferation in MLR with TLR-L treated MDSC [2]: rescues T cell proliferation

CCCCCCCCCCCCCCCCCCCCCCCCCC(=O)N[C@@H](COC[C@H](O)[C@@H](O)CO)[C@H](O)[C@H](O)CCCCCCCCCCCCCC [threitolceramide]
frequency of MDSCs (CD11b+Gr1+ positive cells) [4]: lower frequency | frequency of Ova specific T cell responses (H-2Kb tetramer staining) [4]: higher frequency | tumor size / tumor regression [4]: Tumour regression | frequency of Melan-A26-35 specific T cells (CD11bCD15 positive cells; in the absence of added iNKT cells, unpulsed 0.34%): 0.29% | frequency of Melan-A26-35 specific T cells (CD11bCD15 positive cells; with addition of autologous iNKT cells): 2.87%

poly I:C
MDSC suppressive activity on CFSE labelled OT-I proliferation (BM derived MDSC): partially relieved | activation of iNKT cells by treated MDSC (IFNγ and IL-4 secretion) (iNKT cells): capable of activating iNKT cells | T cell proliferation in MLR with TLR-L treated MDSC [2]: rescues T cell proliferation
